Here are results for 32 compounds from patent US8178690B2, “Compounds and methods for inhibiting the interaction of BCL proteins with binding partners” (Infinity Pharmaceuticals, Inc., priority 2006, dated 2012).

The target of one assay is Bcl-2 (Homo sapiens, UniProt P10415). Briefly: Bcl-2 binding affinity analysis (fluorescence polarization binding assay). To be noted: read-out: BcI2 (Ki, Bcl-2 binding affinity). From the text:
(§1) Bcl-2 and Bcl-xL binding may be determined using a variety of known methods. One such assay is a sensitive and quantitative in vitro binding assay using fluorescence polarization (FP) described by Wang, J.-L.; Zhang, Z-J.; Choksi, S.; Sjam. S.; Lu, Z.; Croce, C. M.; Alnemri, E. S.; Komgold, R.; Huang, Z. Cell permeable Bcl-2 binding peptides: a chemical approach to apoptosis induction in tumor cells. Cancer Res. 2000, 60, 1498-1502).
(§2) Bcl-2 and Bcl-xL binding affinity analysis data is presented below for various compounds of the invention.

For the next assay, the target named is Bcl-xL (Homo sapiens, UniProt Q07817). Briefly: Bcl-xL binding affinity analysis (fluorescence polarization binding assay). To be noted: read-out: BcI-XI (Ki, Bcl-xL binding affinity).
Excerpt: as §1, §2
(Fluorescence polarisation rises when a labelled molecule tumbles more slowly, as on binding a larger partner.)

Chain of Bcl-xL (Q07817 whole entry): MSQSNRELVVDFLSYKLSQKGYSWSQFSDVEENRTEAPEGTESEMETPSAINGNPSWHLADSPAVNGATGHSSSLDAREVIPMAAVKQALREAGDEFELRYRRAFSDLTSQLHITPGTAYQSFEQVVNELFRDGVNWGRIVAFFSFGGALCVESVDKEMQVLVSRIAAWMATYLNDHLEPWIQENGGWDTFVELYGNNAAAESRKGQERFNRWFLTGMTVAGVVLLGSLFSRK
Chain of Bcl-2 (P10415 whole entry): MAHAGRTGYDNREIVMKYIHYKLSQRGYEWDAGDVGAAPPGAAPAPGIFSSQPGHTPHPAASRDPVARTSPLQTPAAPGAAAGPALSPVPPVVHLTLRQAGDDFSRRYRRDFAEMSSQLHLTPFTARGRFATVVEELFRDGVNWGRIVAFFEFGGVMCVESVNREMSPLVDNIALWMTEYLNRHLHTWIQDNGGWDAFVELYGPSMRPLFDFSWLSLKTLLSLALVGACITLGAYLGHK

As for `COc1c(CN2O[C@@H](CO)[C@@H]([C@H](C)O)[C@H]2C(=O)N[C@H]2C[C@H]3C[C@@H]([C@@H]2C)C3(C)C)cccc1-c1cc(CN)cc(C(=O)N[C@@H](Cc2ccccc2)CN(C)C)c1` [295 amine], the values for the Ki at Bcl-2 and at Bcl-xL were below 0.001 µM and below 1 µM, respectively.
In the same order, the values of `COc1c(CN2O[C@@H](CO)[C@@H]([C@H](C)O)[C@H]2C(=O)N[C@H]2C[C@H]3C[C@@H]([C@@H]2C)C3(C)C)cccc1-c1cc(C(=O)N[C@H](CN(C)C)CC(C)(C)C)cc(N(C)C)c1` [Compound 1] are below 0.001 µM and below 1 µM.
As for `COC[C@@H](Cc1ccccc1)NC(=O)c1cc(-c2cccc(CN3O[C@@H](CO)[C@@H]([C@H](C)O)[C@H]3C(=O)N[C@H]3C[C@H]4C[C@@H]([C@@H]3C)C4(C)C)c2OC)cc(N(C)C)c1` [Compound 12], the values for the Ki at Bcl-2 and on Bcl-xL were 0.005 to 0.009 µM and 5 to 10 µM, respectively.
In the same order, the values of `CCOc1c(CN2O[C@@H](CO)[C@@H]([C@H](C)O)[C@H]2C(=O)N[C@H]2C[C@H]3C[C@@H]([C@@H]2C)C3(C)C)cccc1-c1cc(C(=O)N[C@@H](Cc2ccccc2)CN(C)C)cc(N(C)C)c1` [Compound 15] are below 0.001 µM and below 1 µM.
On to `CCOc1c(CN2O[C@@H](CO)[C@@H]([C@H](C)O)[C@H]2C(=O)N[C@H]2C[C@H]3C[C@@H]([C@@H]2C)C3(C)C)cccc1-c1cc(C(=O)N[C@H](Cc2ccccc2)CN(C)C)cc(N(C)C)c1` [Compound 23], for which the Ki (in general, the dissociation constant of the complex between target and ligand, obtained from inhibition or displacement) on Bcl-2 was below 0.001 µM; on Bcl-xL it was below 1 µM.
The like results for `CCOc1c(CN2O[C@@H](CO)[C@@H]([C@H](C)O)[C@H]2C(=O)N[C@H]2C[C@H]3C[C@@H]([C@@H]2C)C3(C)C)cccc1-c1cc(C(=O)N[C@H](CN(C)C)CC(C)(C)C)cc(N(C)C)c1` [Compound 24] were, in that order, below 0.001 µM and below 1 µM.
The like results for `CCOc1c(CN2O[C@@H](CO)[C@@H]([C@H](C)O)[C@H]2C(=O)N[C@H]2C[C@H]3C[C@@H]([C@@H]2C)C3(C)C)cccc1-c1cc(C(=O)N[C@@H](Cc2cccs2)CN(C)C)cc(N(C)C)c1` [Compound 25] were, in that order, below 0.001 µM and below 1 µM.
On to `C[C@@H]1[C@@H](NC(=O)[C@@H]2[C@H]([C@H](C)O)[C@H](CO)ON2Cc2cccc(-c3cc(C(=O)N[C@@H](Cc4ccccc4)CN(C)C)cc(N(C)C)c3)c2OCC2CC2)C[C@H]2C[C@@H]1C2(C)C` [Compound 26], for which the results for the inhibition constant (Ki) on Bcl-2 and at Bcl-xL were below 0.001 µM and below 1 µM, respectively.
For `C[C@@H]1[C@@H](NC(=O)[C@@H]2[C@H]([C@H](C)O)[C@H](CO)ON2Cc2cccc(-c3cc(C(=O)N[C@H](CN(C)C)CC(C)(C)C)cc(N(C)C)c3)c2OCC2CC2)C[C@H]2C[C@@H]1C2(C)C` [Compound 33], the results for the inhibition constant Ki at Bcl-2 and at Bcl-xL were below 0.001 µM and below 1 µM, respectively.
In the same order, the values of `CC(C)C[C@H](CN(C)C)NC(=O)c1cc(-c2cccc(CN3O[C@@H](CO)[C@@H]([C@H](C)O)[C@H]3C(=O)N[C@H]3C[C@H]4C[C@@H]([C@@H]3C)C4(C)C)c2OCC2CC2)cc(N(C)C)c1` [Compound 34] are below 0.001 µM and below 1 µM.
The like results for `CCOc1c(CN2O[C@@H](CO)[C@@H]([C@H](C)O)[C@H]2C(=O)N[C@H]2C[C@H]3C[C@@H]([C@@H]2C)C3(C)C)cccc1-c1cc(C(=O)N[C@@H](CC(C)C)CN(C)C)cc(N(C)C)c1` [Compound 35] were, in that order, below 0.001 µM and below 1 µM.
In the same order, the values of `COc1c(CN2O[C@@H](CO)[C@@H]([C@H](C)O)[C@H]2C(=O)N[C@H]2C[C@H]3C[C@@H]([C@@H]2C)C3(C)C)cccc1-c1cc(C(=O)N[C@@H](Cc2ccccc2)CN(C)C)cc(N(C)C)c1` [Compound 37] are below 0.001 µM and below 1 µM.
As for `C[C@@H]1[C@@H](NC(=O)[C@@H]2[C@H]([C@H](C)O)[C@H](CN)ON2Cc2cccc(-c3cc(C(=O)N[C@@H](Cc4ccccc4)CN(C)C)cc(N(C)C)c3)c2F)C[C@H]2C[C@@H]1C2(C)C` [Compound 38], the inhibitory constant (Ki) was below 0.001 µM on Bcl-2 and above 10 µM on Bcl-xL.
The like results for `C[C@@H]1[C@@H](NC(=O)[C@@H]2[C@H]([C@H](C)O)[C@H](CN)ON2Cc2cccc(-c3cc(C(=O)NCCN(C)C)cc(N(C)C)c3)c2F)C[C@H]2C[C@@H]1C2(C)C` [Compound 53] were, in that order, 0.001 to 0.005 µM and above 10 µM.
The like results for `COc1c(CN2O[C@@H](CN)[C@@H]([C@H](C)O)[C@H]2C(=O)N[C@H]2C[C@H]3C[C@@H]([C@@H]2C)C3(C)C)cccc1-c1cc(C(=O)N[C@@H](Cc2ccccc2)CN(C)C)cc(N(C)C)c1` [Compound 54] were, in that order, 0.001 to 0.005 µM and above 10 µM.
In the same order, the values of `CCN1CCC[C@@H]1CNC(=O)c1cc(-c2cccc(CN3O[C@@H](CN)[C@@H]([C@H](C)O)[C@H]3C(=O)N[C@H]3C[C@H]4C[C@@H]([C@@H]3C)C4(C)C)c2OC)cc(N(C)C)c1` [Compound 60] are below 0.001 µM and 1 to 5 µM.
Consider `COc1c(CN2O[C@@H](CN)[C@@H]([C@H](C)O)[C@H]2C(=O)N[C@H]2C[C@H]3C[C@@H]([C@@H]2C)C3(C)C)cccc1-c1cc(C(=O)N[C@H](CN(C)C)CC(C)(C)C)cc(N(C)C)c1` [Compound 61], for which the Ki was below 0.001 µM on Bcl-2 and below 1 µM on Bcl-xL.
In the same order, the values of `COc1c(CN2O[C@@H](CN)[C@@H]([C@H](C)O)[C@H]2C(=O)N[C@H]2C[C@H]3C[C@@H]([C@@H]2C)C3(C)C)cccc1-c1cc(C(=O)NCCc2ccccc2)cc(N(C)C)c1` [Compound 62] are below 0.001 µM and 5 to 10 µM.
The like results for `COc1c(CN2O[C@@H](CN)[C@@H]([C@H](C)O)[C@H]2C(=O)N[C@H]2C[C@H]3C[C@@H]([C@@H]2C)C3(C)C)cccc1-c1cc(C(=O)NCCN(C)C)cc(N(C)C)c1` [Compound 63] were, in that order, below 0.001 µM and 5 to 10 µM.
In the same order, the values of `COc1c(CN2O[C@@H](CN)[C@@H]([C@H](C)O)[C@H]2C(=O)N[C@H]2C[C@H]3C[C@@H]([C@@H]2C)C3(C)C)cccc1-c1cc(C(=O)NCCc2ccccn2)cc(N(C)C)c1` [Compound 64] are below 0.001 µM and above 10 µM.
With `COC(=O)[C@H](Cc1ccccc1)NC(=O)c1cc(-c2cccc(CN3O[C@@H](CN)[C@@H]([C@H](C)O)[C@H]3C(=O)N[C@H]3C[C@H]4C[C@@H]([C@@H]3C)C4(C)C)c2OC)cc(N(C)C)c1` [Compound 65], the inhibition constant (Ki) is below 0.001 µM at Bcl-2 and above 10 µM on Bcl-xL.
The like results for `COc1c(CN2O[C@@H](CN)[C@@H]([C@H](C)O)[C@H]2C(=O)N[C@H]2C[C@H]3C[C@@H]([C@@H]2C)C3(C)C)cccc1-c1cc(C(=O)N(C)OC)cc(N(C)C)c1` [Compound 66] were, in that order, below 0.001 µM and 5 to 10 µM.
The like results for `COc1c(CN2O[C@@H](CN)[C@@H]([C@H](C)O)[C@H]2C(=O)N[C@H]2C[C@H]3C[C@@H]([C@@H]2C)C3(C)C)cccc1-c1cc(C(=O)N[C@@H](Cc2cscn2)C(=O)N(C)C)cc(N(C)C)c1` [Compound 67] were, in that order, below 0.001 µM and 5 to 10 µM.
In the same order, the values of `COc1c(CN2O[C@@H](CN)[C@@H]([C@H](C)O)[C@H]2C(=O)N[C@H]2C[C@H]3C[C@@H]([C@@H]2C)C3(C)C)cccc1-c1cc(C(=O)N[C@H](CC(C)C)CN(C)C)cc(N(C)C)c1` [Compound 68] are below 0.001 µM and below 1 µM.
Regarding `COc1c(CN2O[C@@H](CN)[C@@H]([C@H](C)O)[C@H]2C(=O)N[C@H]2C[C@H]3C[C@@H]([C@@H]2C)C3(C)C)cccc1-c1cc(C(=O)N(C)C)cc(N(C)C)c1` [Compound 69], the inhibition constant (Ki) on Bcl-2 was 0.005 to 0.009 µM; at Bcl-xL, above 10 µM.
In the same order, the values of `CNC(=O)c1cc(-c2cccc(CN3O[C@@H](CN)[C@@H]([C@H](C)O)[C@H]3C(=O)N[C@H]3C[C@H]4C[C@@H]([C@@H]3C)C4(C)C)c2OC)cc(N(C)C)c1` [Compound 70] are 0.001 to 0.005 µM and above 10 µM.
As for `COc1c(CN2O[C@@H](CN)[C@@H]([C@H](C)O)[C@H]2C(=O)N[C@H]2C[C@H]3C[C@@H]([C@@H]2C)C3(C)C)cccc1-c1cc(C(=O)O)cc(N(C)C)c1` [Compound 71], the inhibitory constant (Ki) was above 0.009 µM on Bcl-2 and 1 to 5 µM at Bcl-xL.
The like results for `COc1c(CN2O[C@@H](CN)[C@@H]([C@H](C)O)[C@H]2C(=O)N[C@H]2C[C@H]3C[C@@H]([C@@H]2C)C3(C)C)cccc1-c1cc(C(=O)N[C@@H](CC(C)C)CN(C)C)cc(N(C)C)c1` [Compound 72] were, in that order, below 0.001 µM and below 1 µM.
In the same order, the values of `COc1c(CN2O[C@@H](CNC(C)=O)[C@@H]([C@H](C)O)[C@H]2C(=O)N[C@H]2C[C@H]3C[C@@H]([C@@H]2C)C3(C)C)cccc1-c1cc(C(=O)N[C@H](CN(C)C)CC(C)(C)C)cc(N(C)C)c1` [Compound 73] are below 0.001 µM and below 1 µM.
Turning to `COc1c(CN2O[C@@H](CNC(=O)C(F)(F)F)[C@@H]([C@H](C)O)[C@H]2C(=O)N[C@H]2C[C@H]3C[C@@H]([C@@H]2C)C3(C)C)cccc1-c1cc(C(=O)NCCc2ccccc2)cc(N(C)C)c1` [Compound 74], the Ki at Bcl-2 was above 0.009 µM; at Bcl-xL it was 5 to 10 µM.
In the same order, the values of `CNC(=O)c1cc(-c2cccc(CN3O[C@@H](CNC(=O)CCC(=O)O)[C@@H]([C@H](C)O)[C@H]3C(=O)N[C@H]3C[C@H]4C[C@@H]([C@@H]3C)C4(C)C)c2OC)cc(N(C)C)c1` [Compound 75] are 0.005 to 0.009 µM and 1 to 5 µM.
In the same order, the values of `COc1c(CN2O[C@@H](CNC(C)=O)[C@@H]([C@H](C)O)[C@H]2C(=O)N[C@H]2C[C@H]3C[C@@H]([C@@H]2C)C3(C)C)cccc1-c1cc(C(=O)NCCc2ccccc2)cc(N(C)C)c1` [Compound 76] are 0.005 to 0.009 µM and above 10 µM.
